From patent US4782076A, “Substituted 2,3,4,9-tetrahydro-1H-carbazole-1-acetic acid derivatives, composition and use” (American Home Products Corporation, priority 1988, dated 1988)

Columns and labels:
[1] = system: Freund's complete adjuvant-induced hind paw edema in rats; experiment: Preventive adjuvant edema in rats (Preventative Adjuvant Edema); format: in vivo, Male Sprague Dawley rats; details: 25 mg/kg, p.o., day 0, 1 and 2; edema measured day 3
Method: This test is a primary screen for anti-inflammatory drugs.
Male Sprague Dawley rats (180-200 g) are used. The animals have free access to water but food is withdrawn 18 hours before testing.
Drug Preparations and Administration:
Freund's complete adjuvant is prepared by suspending 5 mg killed and dried Mycobacterium butyricum (Difco) in 1 mL liquid paraffin. The test compounds are dissolved in distilled water or suspended in 0.5% Tween 80 in distilled water according to their solubility. For primary screening all drugs are administered by gastric lavage at the arbitrary dosage of 25 mg/kg, p.o. in a volume of 0.5 mL/100 g body weight to groups of 10 animals.
The method is essentially that described by Wax et al, J. Pharmacol. Exp. Ther., 192, 166-171 (1975). Groups of rats are injected intradermally in the left hind paw with 0.1 mL of Freund's complete adjuvant. […] The injected hind paw volume is measured before the injection of adjuvant and 24 hours after the last drug administration (day 3) by means of a plethysmometer (Buxco Electronics Inc.). […]
The mean edema volume (expressed in mL±SEM) is calculated for each group and the percentage inhibition of inflammation conferred by the drug is calculated: [formula] where c is the mean edema volume for the untreated controls and t is the means edema volume for the drug treated group.

[2] = system: phenylbenzoquinone-induced writhing in mice; experiment: Phenylbenzoquinone-induced writhing in mice (Phenylquinone Writhing in Mice); format: in vivo, Male Swiss albino mice; details: 60 min before PBQ i.p.
Method: A further test used to determine the utility of the compounds of the present invention is designated: DRUG EFFECTS ON PHENYLBENZOQUINONE-INDUCED WRITHING IN MICE
The objective of this test is to determine the ability of test drugs to inhibit the nociceptive (pain) response of mice injected with a chemical irritant. This test is a primary screen for both peripheral and centrally acting analgesic drugs.
Male Swiss albino mice (15-25 g) are used. The animals are fasted for 18 hours prior to use but have free access to water.
(§1) Drug Preparation and Administration:
Drugs are dissolved or suspended according to their solubility in 0.5% Tween 80 in distilled water. They are administered by gastric lavage in a volume of 5 mL/kg. […]
A modification of the method of Siegmund et al, Proc. Soc. […] The number of writhing or abdominal squirming movements made by each mouse during the following 15 minute period is counted. The experiment is repeated with another group of 5 mice and the mean number of writhes per mouse for a group of 10 mice is calculated.
Drug treated and vehicle-treated control groups are compared and the percentage inhibition of writhing conferred by the drug is calculated: [formula] where c=mean number of writhes in the control group, and where t=mean number of writhes in the test drug group.

[3] = system: reaction of rats to painful stimulation applied to an inflamed paw; experiment: Paw pressure test in the rat; format: in vivo, Male Sprague Dawley rats; details: po, 24 hours after Freund's adjuvant, pain threshold 1 hour later, dose which causes analgesia in 50% of the animals
Source text: A still further test used to determine the utility of the compounds of the present invention is designated: PAW PRESSURE TEST IN THE RAT
The objective of this test is to assess the potency of peripheral and central acting drugs in inhibiting the reaction of rats to painful stimulation applied to an inflamed paw.
Male Sprague Dawley rats (180-200 g) are used. The animals are fasted overnight prior to drug administration.
as §1
Freund's Complete Adjuvant (FCA) is prepared by suspending 5 mg killed and dried Mycobacterium butyricum (Difco) in 1 mL liquid paraffin. The test compounds are dissolved or susended in 0.5% Tween 80 in distilled water according to their solubility. They are administered by gastric gavage in a volume of 0.5 mL/100 g body weight to groups of 10 animals.
Ten rats are used per group. The method is essentially that described by Randall et al, Arch. Int. Pharmacodyn. […] The force is continuously monitored by a pointer moving along a linear scale and is measured in grams. […] The pain threshold is determined 1 hour later in the inflamed paw and the normal paw of the treated and control groups. […]
Each animal which has a reading 1.5 times greater than the mean reading of the control-group will be considered as responsive to treatment. The number of animals showing an analgesic effect is then determined in each group. […]

SMILES	% Inhibition [1] [%]	ED50 ([2]; Mus musculus, po) [mg/kg]	ED50 [3] [mg/kg]	% Inhibition ([2]; 25 mg/kg, p.o.) [%]
C#CCC1CCC(CC)(CC(=O)O)c2[nH]c3c(CC)cccc3c21 (single isomer, unassigned; isomer a) [Example 1, 1,8-Diethyl-2,3,4,9-tetrahydro-4-(2-propynyl)-1H-carbazole-1-acetic Acid Isomer A]	51	6.6	0.38	–
C#CCC1CCC(CC)(CC(=O)O)c2[nH]c3c(CC)cccc3c21 (single isomer, unassigned; isomer b) [Example 2, 1,8-Diethyl-2,3,4,9-tetrahydro-4-(2-propynyl)-1H-carbazole-1-acetic Acid Isomer B]	36	–	–	8
